Laboratory results from patent publication US20230303623A1, “PEPTIDES AND METHODS OF USE” (REALTA LIFE SCIENCES, INC., priority 2020, published 2023).
Entries after “also recorded” stand apart in the source; their conditions may differ.

Legend:
PD-1 binding to PD-L1 = biological target: T1, PD-1 binding to PD-L1 (Homo sapiens, UniProt Q9NZQ7); assay: PD-1:PD-L1 inhibitor screening ELISA; conditions: FIG. 8
T1 construct: purchased
Method: PIC1 peptides were allowed to bind to immobilized PD-L1 on the surface of the plate. Biotinylated PD-1 was then added and bound PD-1 detected by streptavidin-HRP reagent followed by TMB as the substrate for the colorimetric assay.
This inhibitor screening ELISA pair was designed to facilitate the identification and characterization of new PD-1 pathway inhibitors. In this assay, biotinylated human PD-1 was bound to immobilized human PD-L1 and a colorimetric sandwich ELISA platform was used. Plates were coated with human PD-L1 followed by incubation with various PIC1 peptides. Human PD-1-Biotin was then allowed to bind the coated human PD-L1 followed by addition of streptavidin-HRP. TMB was then added as the colorimetric HRP substrate and the wells of the plate analyzed in a plate reader at an absorbance of 450 nm.
The immune checkpoint pathway is an area of significant interest in cancer research. PD-1 is one of the best characterized checkpoint proteins. The binding between PD-1 and its ligand PD-L1 suppresses T-cell activation and allows cancer cells to escape from body's immune surveillance. Therefore, the pharmaceutical inhibition of PD-1 or its ligand has been considered a promising strategy by many cancer researchers. To ascertain if these PIC1 derivatives could inhibit PD-1 interaction with PD-L1, a commercial ELISA kit was utilized. […]

[1] = without PEGylation; as described in U.S. Pat. No. 10,005,818; cited from earlier work
CTLA-4 = biological target: T2, CTLA-4 (Homo sapiens, UniProt P16410); assay: CTLA-4 Blockade Bioassay (Promega); assay type: cell-based; design: host or cells: Jurkat T cells (CTLA-4 effector cells) co-cultured with aAPC/Raji cells; conditions: increasing concentrations
T2 sequence (P16410 36-223): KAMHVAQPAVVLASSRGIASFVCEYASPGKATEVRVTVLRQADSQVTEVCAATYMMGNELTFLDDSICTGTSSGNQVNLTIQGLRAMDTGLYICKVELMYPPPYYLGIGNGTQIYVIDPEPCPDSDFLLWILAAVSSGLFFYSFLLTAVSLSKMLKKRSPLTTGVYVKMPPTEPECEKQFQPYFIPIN
Method: CTLA-4 effector cells were incubated with aAPC/Raji Cells in the absence or presence of increasing concentrations of anti-CTLA-4 antibody (positive control), RLS-0122, RLS-0150, RLS-0154, RLS-0164 and RLS-0168 and RLS-0088 (negative control). Luminescence was detected in luminometer plate reader. The drop-off in signal with the test peptides at high concentrations is due to cell death as a result of peptide buffer effects on the cells.
To assess if PIC1 peptides could block CTLA-4 inhibitory activity in a cell-based assay, select peptides were screened in the CTLA-4 Blockade Bioassay (Promega). This bioluminescent cell-based assay can be used to measure the potency and stability of molecules targeting CTLA-4 and consists of two genetically engineered cell lines: CTLA-4 effector cells: Jurkat T cells expressing human CTLA-4 and a luciferase reporter driven by a native promoter which responds to TCR/CD28 activation and aAPC/Raji Cells: Raji cells expressing an engineered cell surface protein designed to activate cognate TCRs in an antigen-independent manner and endogenously expressing CTLA-4 ligands CD80 and CD86. When the two cell types are co-cultured, CTLA-4 competes with CD28 for their shared ligands, CD80 and CD86 and thus inhibits CD28 pathway activation and promoter-mediated luminescence. Addition of a molecule that blocks the interaction of CTLA-4 with its ligands CD80 and CD86 results in promoter-mediated luminescence.

[2] = test system: purified human Pan T-cells; assay: T-cell exhaustion protocol (repeated CD3/CD28 Dynabead stimulation); assay type: cell-based; conditions: ELISA; for Caspase 3/7 levels, in words: peptides 2 mg/ml at each stimulation, day 8; for IFN-gamma levels in cell supernatants, in words / IL-2 levels in cell supernatants, in words: peptides 2 mg/ml, stimulation 2
Method: Purified human pan-T-cells were subject to stimulation with Dynabeads every 48 hours over the period of 8 days with cells also receiving PIC1 peptides (2 mg/ml) at each stimulation. Cells not receiving Dynabeads were run in parallel to assess background levels of Caspase 3/7 signal. At the eighth day, cells were harvested, and the levels of Caspase 3/7 determined by ELISA.
Purified human pan-T-cells were subject to stimulation with Dynabeads every 48 hours over the period of 8 days with cells also receiving PIC1 peptides (2 mg/ml) at each stimulation. Cell supernatants were collected at each stimulation and levels of IL-2 and IFN-gamma assayed by ELISA.
T-cell exhaustion is a form of T-cell dysfunction that occurs in cancer. It is generally defined by poor effector function, reduction in cytokine release (e.g., IL-2, TNF-alpha, IFN-gamma), sustained expression of inhibitory receptors (e.g., PD-1, LAG-3, CD244, CD160) with the progressive loss of effector function due to overstimulation. Exhaustion can prevent optimal control of tumor growth. Exhausted T cells are prevalent in the tumor microenvironment (TME) and can lead to T-cell apoptosis. T-cell exhaustion is reversible and pharmaceutical inhibition of T-cell exhaustion has been considered a promising strategy by many cancer researchers. To ascertain if PIC1 peptides could reverse T-cell exhaustion and increase T cell viability and effector function, a T-cell exhaustion protocol was developed. To induce T-cell exhaustion, purified human Pan T-cells were stimulated with T-Activator CD3/CD28 Dynabeads and cells were washed and re-stimulated every 48 hours. PIC1 peptides were added to the cells after each stimulation with Dynabeads. After three to four stimulations, cells were harvested for readouts which consisted of assessing T-cell apoptosis by measuring Caspase 3/7 levels and production of cytokines IL-2 and IFN-gamma, which are indicative of T-cell functionality. […] To further evaluate if PIC1 peptides could restore T-cell functionality in cells that have undergone the exhaustion protocol, the inventors next assessed production of cytokines IL-2 and IFN-gamma. Supernatants from the cells after each stimulation was collected and the cytokines measured by ELISA. […] The lower level of IFN-gamma signal was consistently seen in this assay.

VEGF [3] = biological target: T3, VEGF (Homo sapiens, UniProt P15692); assay: VEGF Bioassay (Promega), VEGF signaling via VEGFR-2 (KDR); assay type: cell-based
T3 construct: Promega (bioassay)
T3 sequence (P15692 27-191 isoform P15692-4): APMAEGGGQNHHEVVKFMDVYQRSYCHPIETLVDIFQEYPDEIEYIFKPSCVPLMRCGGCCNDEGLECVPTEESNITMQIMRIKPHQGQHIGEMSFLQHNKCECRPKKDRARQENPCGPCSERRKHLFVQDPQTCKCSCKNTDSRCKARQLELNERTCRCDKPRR
Description: Luminescence was detected in luminometer plate reader.
(§1) Angiogenesis, or the formation of new blood vessels from the established vasculature, is an essential element in tumor growth and metastasis formation. Inhibiting tumor angiogenesis is considered a major therapeutic strategy in oncology. […] The bioluminescent signal is detected in a luminometer.

HUVECs = assay: LPS-induced non-VEGF mediated angiogenesis (tube formation) in HUVECs; assay type: cell-based, human; conditions: peptides 10 mg/ml; LPS 10 ug/ml; overnight
Method: HUVEC cells were incubated with either RLS-0122, RLS-0150, RLS-0154, RLS-0164 and RLS-0168 followed by LPS addition and plating onto extracellular matrix. After overnight incubation, evidence of angiogenesis was determined by fluorescence microscopy. Cells receiving LPS and not receiving LPS served as positive and negative controls for angiogenesis.
Currently there are no drugs on the market to inhibit non-VEGF mediated angiogenesis. To assess whether the PIC1 peptides could inhibit non-VEGF mediated angiogenesis, the inventors developed a model of angiogenesis using human umbilical endothelial vein cells (HUVECs) in which addition of lipopolysaccharide (LPS) induces angiogenesis. HUVECs were first incubated with Cell Trace Violet dye, followed by addition of PIC1 peptides (10 mg/ml) for 1 hour at 37° C. and then treated with 10 ug/ml of LPS and placement on an extracellular matrix to promote angiogenesis. Cells were incubated overnight at 37° C. in a humidified CO2 incubator. Cells were then visualized for tube formation indicative of angiogenesis by fluorescence microscopy.

[4] = Total Antioxidant Capacity (TAC) assay; conditions: highest peptide concentration 1.5 mM; compared to parent peptide
Method: As previously reported, the TAC (Total Antioxidant Capacity) Assay (Cell Biolabs, Inc, San Diego, CA) was used to measure the antioxidant capacity of the PIC1 variants based on the reduction of copper (II) to copper (I). The kit protocol was performed per the manufacturer's recommendations.
The antioxidant properties for the PIC1 variants were evaluated in a Total Antioxidant Capacity (TAC) assay, as previously reported. Total antioxidant activity over a range of peptide concentrations were determined for the stapled and the D-amino acid peptides based on the PA-I8Sar and PA-C9Sar backbones (FIG. 4A-4B), with the activity of the highest peptide concentration reported (1.5 mM) (FIG. 5A-5C).

VEGF [5] = biological target: T3, VEGF; assay: VEGF binding ELISA plate-based assay; conditions: peptides 1 mg/ml
Method: A fixed amount of PIC1 peptides (1 mg/ml) were added to the plates followed by a rabbit polyclonal antibody that recognizes the peptides and then a secondary anti-rabbit antibody conjugated with HRP. The plate was then developed by addition of TMB as the substrate for the colorimetric assay.
as §1

T1 sequence (Q9NZQ7 19-238 limits assumed): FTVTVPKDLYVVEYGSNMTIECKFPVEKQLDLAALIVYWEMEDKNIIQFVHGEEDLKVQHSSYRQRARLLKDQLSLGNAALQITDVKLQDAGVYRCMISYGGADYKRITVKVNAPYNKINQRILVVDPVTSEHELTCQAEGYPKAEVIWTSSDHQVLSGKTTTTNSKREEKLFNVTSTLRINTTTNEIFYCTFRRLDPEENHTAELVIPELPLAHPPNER

Substance	inhibition of binding of PD-1 to PD-L1, in words (PD-1 binding to PD-L1)	solubility in water [1]	inhibition of CTLA-4 mediated cell signaling (increase in luminescence), in words (CTLA-4)	Caspase 3/7 levels, in words ([2]; listed as RLS-0168)	IFN-gamma levels in cell supernatants, in words ([2]; listed as RLS-0168)	IL-2 levels in cell supernatants, in words ([2]; listed as RLS-0168)	inhibition of VEGF signaling via VEGFR-2 (luminescence), in words (VEGF [3])	tube formation / angiogenesis inhibition, in words (HUVECs)	inhibition of CTLA-4 mediated cell signaling (increase in luminescence), in words (CTLA-4; listed as RLS-0168)	total antioxidant capacity, in words [4]	Caspase 3/7 levels, in words ([2]; listed as RLS-0164)	IFN-gamma levels in cell supernatants, in words ([2]; listed as RLS-0164)	IL-2 levels in cell supernatants, in words ([2]; listed as RLS-0164)	binding to VEGF, in words (VEGF [5])	inhibition of CTLA-4 mediated cell signaling (increase in luminescence), in words (CTLA-4; listed as RLS-0164)
IALILEP(Sar)CCQERAA (IALILEPXCCQERAA; sarcosine at position 8; MOD_RES (8)..(8) Sarcosine) [PA-0088, parent peptide, sarcosine at position 8 of PIC1]	did not inhibit	water soluble without PEGylation	no inhibitory over background	–	–	–	–	–	–	–	–	–	–	–	–
IALILEPI(Sar)CQERdAA (IALILEPIXCQERAA; D-Ala; sarcosine; MOD_RES (9)..(9) Sarcosine; MOD_RES (14)..(14) D-amino acid) [PA-0168]	–	–	–	very low to undetectable levels; also recorded: reduced levels	detectable at stimulation 2; also recorded: increased levels	detectable IL-2 at stimulation 2; also recorded: increased levels	did not inhibit signaling	no detectable tube formation	showed inhibitory activity; also recorded: able to inhibit CTLA-4 mediated cell signaling	–	–	–	–	–	–
IALILEPI(Sar)dCQERAA (IALILEPIXCQERAA; D-Cys; sarcosine; MOD_RES (9)..(9) Sarcosine; MOD_RES (10)..(10) D-amino acid) [PA-0164]	–	–	–	–	–	–	did not inhibit signaling	no detectable tube formation	–	enhanced activity	decreased levels; also recorded: reduced levels	showed IL-2 and IFN-gamma signal at stimulation 2; also recorded: increased levels	showed IL-2 and IFN-gamma signal at stimulation 2; also recorded: increased levels	binding with high affinity	showed inhibitory activity; also recorded: able to inhibit CTLA-4 mediated cell signaling
